{"source": "patent US12276654B2", "about": "“Chemical probe-dependent evaluation of protein activity and uses thereof” (The University of Chicago, priority 2017, dated 2025)", "molecular_target": "T1, FAAH (Homo sapiens, UniProt O00519)", "T1 construct": "endogenous in cells", "T1 sequence (O00519 1-579)": "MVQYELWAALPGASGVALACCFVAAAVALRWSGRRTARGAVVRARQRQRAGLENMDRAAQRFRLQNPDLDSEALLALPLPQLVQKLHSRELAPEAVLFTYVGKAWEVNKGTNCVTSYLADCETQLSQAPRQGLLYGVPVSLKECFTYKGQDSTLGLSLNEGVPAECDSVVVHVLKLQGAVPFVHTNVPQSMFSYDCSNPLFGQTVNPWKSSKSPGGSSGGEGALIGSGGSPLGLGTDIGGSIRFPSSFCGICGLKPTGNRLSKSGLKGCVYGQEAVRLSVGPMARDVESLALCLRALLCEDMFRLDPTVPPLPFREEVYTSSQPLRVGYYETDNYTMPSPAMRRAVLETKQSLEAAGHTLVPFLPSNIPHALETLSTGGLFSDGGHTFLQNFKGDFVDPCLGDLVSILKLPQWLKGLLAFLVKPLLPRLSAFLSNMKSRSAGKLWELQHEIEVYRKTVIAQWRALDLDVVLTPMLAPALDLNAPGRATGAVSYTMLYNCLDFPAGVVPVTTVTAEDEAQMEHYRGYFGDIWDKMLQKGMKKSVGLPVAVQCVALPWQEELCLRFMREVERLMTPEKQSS", "test": "sADPL in situ target engagement in cancer cells, FAAH", "type": "cell-based", "details": "inhibitor prior to family-wide probe", "experimental": "FIG. 23. In situ Target Engagement. Cancer cells were treated with DMSO as the control, with inhibitor prior to family wide probe to pre-block the active site, or with family-wide probe directly. Then sADPL workflow was applied to read out the CT difference. Serine hydrolase NCEH1 and its specific inhibitor JW480, or FAAH and inhibitor PF3845 were applied. The activity fold change was transformed from CT value with PCR amplification factor 1.91 determined by a standard qPCR curve and the activities were normalized to DMSO control at different cell lysate concentrations. […] To quantitatively measure the target engagement, different dose of JW480 was applied to either its target NCEH1, or off-target MGLL.\nAs another alternative detection method, sADPL is complementary with gel-based and MS-based detection methods. In this design, the inventors treat the live cell with several family-wide probes. The probes will label all the members of the protein families. Then one could get the labeled proteome after the cell lysis. […]\nA summary of this assay is provided below: • 1. […] In the oligo design, the orthogonal forward primers were employed for different antibody to enable the multiplexing real time PCR readout. […]\nTwo amine modified oligos were conjugated to antibody and streptavidin, respectively. […] A Taqman probe was designed for real time PCR quantification. […]"}
{"smiles": "O=C(Nc1cccnc1)N1CCC(Cc2cccc(Oc3ccc(C(F)(F)F)cn3)c2)CC1", "note": "[PF3845]", "values": [{"measurement": "FAAH activity in inhibitor competition group by sADPL, normalized to DMSO control", "result": "bring the activities down to the levels of DMSO controls"}]}
